The kinase profiling compilation of Christmann-Franck et al. (2016)

How the values were obtained:
Test in all cases: KINOMEscan competition binding
Settings in all cases: compound 10.0 µM
AKT1 (human) = AKT1 (human) (UniProt P31749)
CAMK1D (human) = CAMK1D (human) (UniProt Q8IU85)
CDK17 (human) = CDK17 (human) (UniProt Q00537)
CSF1R (human) = CSF1R (human) (UniProt P07333)
CSNK2A1 (human) = CSNK2A1 (human) (UniProt P68400)
CSNK2A2 (human) = CSNK2A2 (human) (UniProt P19784)
EPHA8 (human) = EPHA8 (human) (UniProt P29322)
EPHB1 (human) = EPHB1 (human) (UniProt P54762)
EPHB4 (human) = EPHB4 (human) (UniProt P54760)
FES (human) = FES (human) (UniProt P07332)
Sequence of FES (human) (P07332 whole entry, looked up): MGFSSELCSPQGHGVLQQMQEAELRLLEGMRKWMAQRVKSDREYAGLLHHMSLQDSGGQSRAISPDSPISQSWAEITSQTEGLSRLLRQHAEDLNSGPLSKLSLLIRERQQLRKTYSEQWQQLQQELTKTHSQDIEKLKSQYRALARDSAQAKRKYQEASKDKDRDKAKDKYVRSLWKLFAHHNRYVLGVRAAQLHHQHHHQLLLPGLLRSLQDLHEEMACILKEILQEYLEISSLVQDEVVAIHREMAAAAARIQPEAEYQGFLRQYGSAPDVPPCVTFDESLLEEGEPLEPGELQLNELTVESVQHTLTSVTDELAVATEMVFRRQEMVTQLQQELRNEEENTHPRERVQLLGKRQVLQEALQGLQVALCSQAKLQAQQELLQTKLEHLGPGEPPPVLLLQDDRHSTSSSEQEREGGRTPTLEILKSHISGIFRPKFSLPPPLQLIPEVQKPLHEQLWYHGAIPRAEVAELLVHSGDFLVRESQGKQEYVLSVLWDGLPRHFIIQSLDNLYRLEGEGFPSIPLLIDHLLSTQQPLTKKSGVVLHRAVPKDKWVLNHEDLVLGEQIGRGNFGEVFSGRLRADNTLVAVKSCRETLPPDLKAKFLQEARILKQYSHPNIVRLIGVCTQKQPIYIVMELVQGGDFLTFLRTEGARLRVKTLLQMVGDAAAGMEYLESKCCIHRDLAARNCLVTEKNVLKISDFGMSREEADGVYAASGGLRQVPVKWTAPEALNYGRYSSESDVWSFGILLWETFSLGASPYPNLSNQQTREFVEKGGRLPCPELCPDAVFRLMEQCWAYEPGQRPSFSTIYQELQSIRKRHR

FLT1 (human) = FLT1 (human) (UniProt P17948)
[1] = test system: FLT3 (human), P36888 [ITD]
GAK (human) = GAK (human) (UniProt O14976)
GSK3B (human) = GSK3B (human) (UniProt P49841)
Sequence of GSK3B (human) (P49841 whole entry, looked up): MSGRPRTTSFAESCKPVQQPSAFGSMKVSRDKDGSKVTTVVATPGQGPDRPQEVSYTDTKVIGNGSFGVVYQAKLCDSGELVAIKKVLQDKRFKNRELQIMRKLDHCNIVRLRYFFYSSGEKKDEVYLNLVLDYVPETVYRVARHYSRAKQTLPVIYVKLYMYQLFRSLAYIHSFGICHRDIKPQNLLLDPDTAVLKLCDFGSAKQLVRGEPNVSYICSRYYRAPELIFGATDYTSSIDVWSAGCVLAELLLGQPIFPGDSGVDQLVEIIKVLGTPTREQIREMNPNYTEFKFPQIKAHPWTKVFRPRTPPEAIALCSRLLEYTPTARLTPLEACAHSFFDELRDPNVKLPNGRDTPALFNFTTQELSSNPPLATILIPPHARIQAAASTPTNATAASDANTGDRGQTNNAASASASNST

LCK (human) = LCK (human) (UniProt P06239)
LIMK1 (human) = LIMK1 (human) (UniProt P53667)
LTK (human) = LTK (human) (UniProt P29376)
LYN (human) = LYN (human) (UniProt P07948)
MAP3K7 (human) = MAP3K7 (human) (UniProt O43318)
MAPK12 (human) = MAPK12 (human) (UniProt P53778)
MAPK7 (human) = MAPK7 (human) (UniProt Q13164)
Sequence of MAPK7 (human) (Q13164 whole entry, looked up): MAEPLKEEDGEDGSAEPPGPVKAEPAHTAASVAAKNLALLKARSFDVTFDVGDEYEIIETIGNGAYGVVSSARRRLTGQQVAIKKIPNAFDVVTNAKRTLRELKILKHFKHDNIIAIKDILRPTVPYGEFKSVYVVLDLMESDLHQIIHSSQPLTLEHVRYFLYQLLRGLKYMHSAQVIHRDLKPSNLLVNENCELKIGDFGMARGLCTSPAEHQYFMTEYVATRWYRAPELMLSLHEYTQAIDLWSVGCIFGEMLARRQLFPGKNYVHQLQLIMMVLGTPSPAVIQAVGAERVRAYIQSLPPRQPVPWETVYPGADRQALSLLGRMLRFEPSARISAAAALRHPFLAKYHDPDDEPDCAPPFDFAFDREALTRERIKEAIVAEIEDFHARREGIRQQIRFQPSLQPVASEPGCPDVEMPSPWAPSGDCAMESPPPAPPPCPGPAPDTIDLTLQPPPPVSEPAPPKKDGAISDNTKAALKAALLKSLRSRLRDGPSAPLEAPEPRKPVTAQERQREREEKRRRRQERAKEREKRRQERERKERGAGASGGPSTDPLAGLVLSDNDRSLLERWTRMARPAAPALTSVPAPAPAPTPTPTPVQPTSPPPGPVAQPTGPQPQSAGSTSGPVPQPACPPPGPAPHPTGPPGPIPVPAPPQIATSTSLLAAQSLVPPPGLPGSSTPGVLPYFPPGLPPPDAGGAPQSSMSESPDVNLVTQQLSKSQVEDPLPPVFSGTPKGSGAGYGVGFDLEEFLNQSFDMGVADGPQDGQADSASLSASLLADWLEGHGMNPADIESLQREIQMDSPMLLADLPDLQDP

MAPK8 (human) = MAPK8 (human) (UniProt P45983)
MKNK2 (human) = MKNK2 (human) (UniProt Q9HBH9)
NEK2 (human) = NEK2 (human) (UniProt P51955)
NLK (human) = NLK (human) (UniProt Q9UBE8)
Sequence of NLK (human) (Q9UBE8 whole entry, looked up): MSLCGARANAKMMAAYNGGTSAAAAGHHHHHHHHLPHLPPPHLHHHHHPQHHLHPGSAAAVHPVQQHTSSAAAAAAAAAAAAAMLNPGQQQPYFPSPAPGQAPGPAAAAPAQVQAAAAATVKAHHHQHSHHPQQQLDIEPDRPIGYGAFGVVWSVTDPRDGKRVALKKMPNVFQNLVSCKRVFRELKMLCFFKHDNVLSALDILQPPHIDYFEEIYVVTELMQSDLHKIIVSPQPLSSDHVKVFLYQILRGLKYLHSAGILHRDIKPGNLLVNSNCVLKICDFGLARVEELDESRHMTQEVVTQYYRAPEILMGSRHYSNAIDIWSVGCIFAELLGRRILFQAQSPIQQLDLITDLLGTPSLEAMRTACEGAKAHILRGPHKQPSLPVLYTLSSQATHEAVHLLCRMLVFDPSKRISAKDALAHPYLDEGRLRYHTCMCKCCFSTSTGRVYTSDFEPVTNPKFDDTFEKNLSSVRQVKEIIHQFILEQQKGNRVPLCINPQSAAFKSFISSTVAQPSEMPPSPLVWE

NUAK1 (human) = NUAK1 (human) (UniProt O60285)
PAK3 (human) = PAK3 (human) (UniProt O75914)
Sequence of PAK3 (human) (O75914 whole entry, looked up): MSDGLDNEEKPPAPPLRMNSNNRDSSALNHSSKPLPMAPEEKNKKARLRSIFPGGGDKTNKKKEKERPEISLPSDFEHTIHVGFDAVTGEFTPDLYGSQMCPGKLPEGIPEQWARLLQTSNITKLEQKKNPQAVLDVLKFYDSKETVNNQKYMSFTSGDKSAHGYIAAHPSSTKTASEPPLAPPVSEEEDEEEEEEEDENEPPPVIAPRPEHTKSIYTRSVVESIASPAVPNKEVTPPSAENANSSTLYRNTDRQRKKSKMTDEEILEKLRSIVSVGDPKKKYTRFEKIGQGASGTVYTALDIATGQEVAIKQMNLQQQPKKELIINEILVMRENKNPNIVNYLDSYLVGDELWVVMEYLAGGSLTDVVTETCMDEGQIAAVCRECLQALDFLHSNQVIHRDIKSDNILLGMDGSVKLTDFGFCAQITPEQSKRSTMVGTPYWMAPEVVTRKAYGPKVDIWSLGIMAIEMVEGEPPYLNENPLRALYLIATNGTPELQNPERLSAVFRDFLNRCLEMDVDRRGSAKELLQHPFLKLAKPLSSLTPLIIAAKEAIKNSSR

PAK7 (human) = PAK7 (human) (UniProt Q9P286)
PIM1 (human) = PIM1 (human) (UniProt P11309)
Sequence of PIM1 (human) (P11309 whole entry, looked up): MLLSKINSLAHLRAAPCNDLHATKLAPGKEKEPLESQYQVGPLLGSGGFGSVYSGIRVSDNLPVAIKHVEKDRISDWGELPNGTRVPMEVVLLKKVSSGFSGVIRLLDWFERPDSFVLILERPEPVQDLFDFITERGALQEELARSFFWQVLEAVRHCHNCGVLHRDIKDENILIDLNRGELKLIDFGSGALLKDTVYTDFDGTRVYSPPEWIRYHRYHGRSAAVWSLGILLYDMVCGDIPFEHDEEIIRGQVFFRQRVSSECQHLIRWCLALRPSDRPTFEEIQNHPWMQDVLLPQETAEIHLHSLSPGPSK

PIM2 (human) = PIM2 (human) (UniProt Q9P1W9)
PIM3 (human) = PIM3 (human) (UniProt Q86V86)
PKMYT1 (human) = PKMYT1 (human) (UniProt Q99640)
PRKCE (human) = PRKCE (human) (UniProt Q02156)
PRKCH (human) = PRKCH (human) (UniProt P24723)
Sequence of PRKCH (human) (P24723 whole entry, looked up): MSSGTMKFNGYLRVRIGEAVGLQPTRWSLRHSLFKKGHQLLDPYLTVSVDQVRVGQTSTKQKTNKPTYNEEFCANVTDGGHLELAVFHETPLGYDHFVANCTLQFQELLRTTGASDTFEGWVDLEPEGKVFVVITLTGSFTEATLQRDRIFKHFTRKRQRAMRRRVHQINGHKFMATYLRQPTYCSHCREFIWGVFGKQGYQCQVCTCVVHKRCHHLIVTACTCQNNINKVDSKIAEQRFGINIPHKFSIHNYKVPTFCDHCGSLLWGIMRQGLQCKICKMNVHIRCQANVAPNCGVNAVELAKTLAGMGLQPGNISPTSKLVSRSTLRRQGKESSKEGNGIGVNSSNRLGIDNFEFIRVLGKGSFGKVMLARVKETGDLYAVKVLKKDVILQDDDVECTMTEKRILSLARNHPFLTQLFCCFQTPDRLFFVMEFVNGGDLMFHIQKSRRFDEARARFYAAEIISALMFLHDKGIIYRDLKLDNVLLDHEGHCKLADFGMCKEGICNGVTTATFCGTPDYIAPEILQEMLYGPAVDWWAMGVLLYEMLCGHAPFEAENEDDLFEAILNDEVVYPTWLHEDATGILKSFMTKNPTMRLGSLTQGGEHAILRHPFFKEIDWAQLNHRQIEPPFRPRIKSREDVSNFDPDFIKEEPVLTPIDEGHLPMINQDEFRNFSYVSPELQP

PRKG2 (human) = PRKG2 (human) (UniProt Q13237)
PTK2 (human) = PTK2 (human) (UniProt Q05397)
RPS6KA5 KD1 (human) = RPS6KA5 KD1 (human) (UniProt O75582)
STK36 (human) = STK36 (human) (UniProt Q9NRP7)
TAOK1 (human) = TAOK1 (human) (UniProt Q7L7X3)
TEK (human) = TEK (human) (UniProt Q02763)
ULK1 (human) = ULK1 (human) (UniProt O75385)

Sequence of AKT1 (human) (P31749 whole entry, looked up): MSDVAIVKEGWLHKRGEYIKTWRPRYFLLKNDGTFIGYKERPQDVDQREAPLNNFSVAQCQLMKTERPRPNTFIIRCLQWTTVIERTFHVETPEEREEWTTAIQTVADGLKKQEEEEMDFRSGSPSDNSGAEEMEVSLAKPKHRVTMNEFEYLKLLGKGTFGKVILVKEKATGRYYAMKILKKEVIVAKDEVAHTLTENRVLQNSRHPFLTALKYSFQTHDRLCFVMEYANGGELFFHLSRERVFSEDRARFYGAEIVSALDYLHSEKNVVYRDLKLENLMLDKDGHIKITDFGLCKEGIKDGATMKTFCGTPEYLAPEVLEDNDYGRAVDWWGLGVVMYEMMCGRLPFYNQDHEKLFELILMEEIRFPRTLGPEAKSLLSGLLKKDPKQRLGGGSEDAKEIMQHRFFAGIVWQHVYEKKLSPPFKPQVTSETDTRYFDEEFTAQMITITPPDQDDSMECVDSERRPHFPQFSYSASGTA

## Cc1ccc(NC(=O)c2cccc(C(C)(C)C#N)c2)cc1Nc1ccc2ncn(C)c(=O)c2c1
AKT1 (human)
  kinase still bound, per cent of control: 100%
CAMK1D (human)
  kinase still bound, per cent of control: 100%
CDK17 (human)
  kinase still bound, per cent of control: 100%
CSF1R (human)
  kinase still bound, per cent of control: 0.1%
CSNK2A1 (human)
  kinase still bound, per cent of control: 88%
CSNK2A2 (human)
  kinase still bound, per cent of control: 100%
EPHA8 (human)
  kinase still bound, per cent of control: 2.1%
EPHB1 (human)
  kinase still bound, per cent of control: 1%
EPHB4 (human)
  kinase still bound, per cent of control: 0.25%
FES (human)
  kinase still bound, per cent of control: 43%
FLT1 (human)
  kinase still bound, per cent of control: 4.4%
[1]
  kinase still bound, per cent of control: 78%
GAK (human)
  kinase still bound, per cent of control: 99%
GSK3B (human)
  kinase still bound, per cent of control: 95%
LCK (human)
  kinase still bound, per cent of control: 0.7%
LIMK1 (human)
  kinase still bound, per cent of control: 100%
LTK (human)
  kinase still bound, per cent of control: 100%
LYN (human)
  kinase still bound, per cent of control: 0.3%
MAP3K7 (human)
  kinase still bound, per cent of control: 17%
MAPK12 (human)
  kinase still bound, per cent of control: 45%
MAPK7 (human)
  kinase still bound, per cent of control: 100%
MAPK8 (human)
  kinase still bound, per cent of control: 100%
MKNK2 (human)
  kinase still bound, per cent of control: 99%
NEK2 (human)
  kinase still bound, per cent of control: 100%
NLK (human)
  kinase still bound, per cent of control: 48%
NUAK1 (human)
  kinase still bound, per cent of control: 100%
PAK3 (human)
  kinase still bound, per cent of control: 81%
PAK7 (human)
  kinase still bound, per cent of control: 100%
PIM1 (human)
  kinase still bound, per cent of control: 100%
PIM2 (human)
  kinase still bound, per cent of control: 100%
PIM3 (human)
  kinase still bound, per cent of control: 98%
PKMYT1 (human)
  kinase still bound, per cent of control: 98%
PRKCE (human)
  kinase still bound, per cent of control: 100%
PRKCH (human)
  kinase still bound, per cent of control: 100%
PRKG2 (human)
  kinase still bound, per cent of control: 100%
PTK2 (human)
  kinase still bound, per cent of control: 100%
RPS6KA5 KD1 (human)
  kinase still bound, per cent of control: 100%
STK36 (human)
  kinase still bound, per cent of control: 88%
TAOK1 (human)
  kinase still bound, per cent of control: 91%
TEK (human)
  kinase still bound, per cent of control: 62%
ULK1 (human)
  kinase still bound, per cent of control: 94%
